Values of other authors in PMC9798770 (ACS Omega, 2022).

Test system: SARS-CoV-2

Structure (SMILES)	EC50 (read-out: EC50, antiviral activity) [µM]	antiviral activity compared with GRL0617
Cc1ccc(N)cc1C(=O)N[C@H](C)c1cccc2ccccc12 [GRL0617]	~20	
C[C@H](c1cccc2ccccc12)N(C)Cc1ccc(O)cc1 [Jun9-72-2]		higher
